Assay results: US20240390453A1, “PEPTIDE HAVING HAIR LOSS PREVENTION OR HAIR GROWTH PROMOTION ACTIVITY, AND USE THEREOF” (CAREGEN CO., LTD., priority 2021, published 2024)

Assays:
MSX2 = test: RT-PCR of MSX2 expression in HHGMC; type: cell-based, human; conditions: peptide 500 nM, 5 μM, 50 μM, 72 hours, FIG. 7
Experimental: (§1) Specifically, HHGMC (human hair germinal matrix cell, Sciencell, USA) was seeded in a 6-well culture plate at 4λ10^5 cells/well and then cultured in MSC complete medium (mesenchymal stem cell complete media) for 24 hours. Next, the medium was replaced with serum free MSC complete medium and cultured again for 24 hours. Then, the HHGMC was treated with the peptide of SEQ ID NO: 1 prepared in the Preparation Example at concentrations of 500 nM, 5 μM, and 50 μM, respectively, and cultured at 37° C. for 72 hours. As a positive control, EGF was treated at a concentration of 50 nM, and as a negative control, HHGMC without any treatment was used. After washing with PBS, RNA was isolated by treating with 300 μl of easy blue (intron, Korea). Next, cDNA was synthesized using a cDNA synthesis kit (enzynomics, Korea) by quantification using nano drop, and PCR was performed using primers for MSX2 and FOXN1 (base sequences of primer are listed in Table 4 below) and PCR premix (enzynomics, Korea). Electrophoresis was performed on a 1.5% agarose gel, and mRNA of MSX2 and FOXN1 was detected using a band analysis system (Bio-Rad gel image system).

FOXN1 = test: RT-PCR of FOXN1 expression in HHGMC; type: cell-based, human; conditions: peptide 500 nM, 5 μM, 50 μM, 72 hours, FIG. 7
Experimental: as §1

Keratin 19 = test: RT-PCR of Keratin 19 expression in HHORSC; type: cell-based, human; conditions: peptide 500 nM, 5 μM, 50 μM, 72 hours, FIG. 6
Experimental: (§2) Specifically, HHORSC (human hair outer root sheath cell, Sciencell, USA) was seeded in a 6-well culture plate at 4λ10^5 cells/well and then cultured in MSC complete medium (mesenchymal stem cell complete media) for 24 hours. Next, the medium was replaced with serum free MSC complete medium and cultured again for 24 hours. Then, the HHORSC was treated with the peptide of SEQ ID NO: […] in the Preparation Example at concentrations of 500 nM, 5 μM, and 50 μM, respectively, and cultured at 37° C. for 72 hours. As a positive control, EGF was treated at a concentration of 50 nM, and as a negative control, HHORSC without any treatment was used. After washing with PBS, RNA was isolated by treating with 300 μl of easy blue (intron, Korea). Then, cDNA was synthesized using a cDNA synthesis kit (enzynomics, Korea) by quantification using nano drop, and PCR was performed using primers for Ha3-II, Keratin 5, Keratin 14, and Keratin 19 (base sequences of primer are listed in Table 3 below) and PCR premix (enzynomics, Korea). Electrophoresis was performed on a 1.5% agarose gel, and the mRNAs of Ha3-II, Keratin 5, Keratin 14, and Keratin 19 were detected using a band analysis system (Bio-Rad gel image system).

Keratin 14 = test: RT-PCR of Keratin 14 expression in HHORSC; type: cell-based, human; conditions: peptide 500 nM, 5 μM, 50 μM, 72 hours, FIG. 6
Experimental: as §2

[1] = test system: DKK-1 protein (dickkopf-related protein 1); test: Western blotting of DKK-1 protein in DHT-treated HHFDPC; type: cell-based, human; conditions: HHFDPC with DHT 100 nM, peptide 500 nM, 5 μM, 50 μM, 24 hours, FIG. 5
Experimental: DKK-1 protein (dickkopf-related protein 1) is a hair loss-related protein known to be highly expressed in individuals with hair loss, especially male pattern hair loss, and its expression is known to be promoted by hormones such as DHT (Dihydrotestosterone). Accordingly, the expression of DKK-1 protein was induced by treating HHFDPC cells with DHT together with the peptide according to the Preparation Example of the present invention, and then the expression level of DKK-1 was measured through Western blotting to determine whether there was an effect of suppressing the expression of DKK-1 protein.
Specifically, HHFDPC as in [Experiment Example 1-1] was seeded in a 6-well culture plate at 4λ10^5 cells/well and then cultured in MSC complete medium (mesenchymal stem cell complete media) for 24 hours. Next, the medium was replaced with serum free MSC complete medium and cultured again for 24 hours. In addition, the HHFDPC was treated with the peptide of SEQ ID NO: 1 prepared in the Preparation Example at concentrations of 500 nM, 5 μM, and 50 μM, respectively, and at this time, DHT, an expression inducer of DKK-1 protein, was simultaneously treated at a concentration of 100 nM and then cultured at 37° C. for 24 hours. […] After washing again with 0.1% PBS-T (0.1% Tween-20 in PBS) three times for 15 minutes each, DKK-1 protein was detected by treatment with ECL solution (GE Healthcare, USA).

p-ERK = test: Western blotting of phosphorylated ERK in HHFDPC; type: cell-based, human; conditions: peptide 500 nM, 5 μM, and 50 µM, 24 hours, FIG. 2
Experimental: (§3) First, phosphorylated forms of AKT and ERK, which act as signaling molecules related to the proliferation of HHFDPC, were confirmed through Western blotting. Specifically, HHFDPC as in [Experiment Example 1-1] above was seeded at 4λ10^5 cells/well in a 6-well culture plate, cultured in MSC complete medium (mesenchymal stem cell complete media) for 24 hours, and then the medium was replaced with serum free MSC complete medium and cultured for another 24 hours. Then, the HHFDPC was treated with the peptide of SEQ ID NO: 1 prepared in the Preparation Example at concentrations of 500 nM, 5 μM, and 50 µM, respectively, and cultured at 37° C. for 24 hours. As a positive control, minoxidil was treated at a concentration of 1 μM, and as a negative control, HHFDPC without any treatment was used. Then, Western blotting was performed to detect phosphorylated AKT and phosphorylated ERK. After washing with PBS, the cells were treated with 100 μl of lysis buffer to destroy cells, thereby obtaining cell lysate. After electrophoresis using a 10% SDS-PAGE gel, it was transferred to a PVDF membrane and blocked using 5% skim milk at room temperature for 30 minutes. […] After washing again with 0.1% PBS-T (0.1% Tween-20 in PBS) three times for 15 minutes each, p-AKT and p-ERK were detected by treatment with ECL solution (GE Healthcare, USA).

Keratin 5 = test: RT-PCR of Keratin 5 expression in HHORSC; type: cell-based, human; conditions: peptide 500 nM, 5 μM, 50 μM, 72 hours, FIG. 6
Experimental: as §2

LEF-1 = test: RT-PCR of LEF-1 expression in HHFDPC; type: cell-based, human; conditions: peptide 500 nM, 5 μM, 50 μM, 24 hours, FIG. 4
Experimental: (§4) Furthermore, in order to determine whether the β-catenin moves to the nucleus and is activated to affect cell proliferation and differentiation, whether the expression of LEF-1, c-Myc and cyclin D1 (cyclin D1), which act as downstream factors, increases with β-catenin activation was confirmed through RT-PCR. Specifically, in the same manner as the previous Western blotting experiment, HHFDPC cells were cultured, treated with the peptides of the Preparation Example of the present invention at concentrations of 500 nM, 5 μM, and 50 μM, respectively, and cultured at 37° C. for 24 hours. After washing the cells with PBS, RNA was isolated by treating them with 300 μl of easy blue (intron, Korea). Then, cDNA was synthesized using a cDNA synthesis kit (enzynomics, Korea) by quantifying it with nano drop, and PCR was performed using primers for LEF-1, c-Myc and cyclin D1 (base sequences of the primer are listed in Table 2 below) and PCR premix (enzynomics, Korea). Electrophoresis was performed on a 1.5% agarose gel, and then the mRNA of LEF-1, c-Myc and cyclin D1 was detected using a band analysis system (Bio-Rad gel image system).

c-Myc = test: RT-PCR of c-Myc expression in HHFDPC; type: cell-based, human; conditions: peptide 500 nM, 5 μM, 50 μM, 24 hours, FIG. 4
Experimental: as §4

p-AKT = test: Western blotting of phosphorylated AKT in HHFDPC; type: cell-based, human; conditions: peptide 500 nM, 5 μM, and 50 µM, 24 hours, FIG. 2
Experimental: as §3

β-catenin = test: Western blotting of β-catenin moved into the nucleus of HHFDPC; type: cell-based, human; conditions: HHFDPC nuclear protein, peptide 500 nM, 5 µM, and 50 μM, 24 hours, FIG. 3
Experimental: In addition, in addition to p-AKT and p-ERK, in order to confirm the activation of β-catenin, which is known to affect cell proliferation and differentiation, whether β-catenin moved into the nucleus was confirmed through Western blotting. Specifically, the HHFDPC as in [Experiment Example 1-1] was seeded in a 6-well culture plate at an amount of 4λ10^5 cells/well, cultured in MSC complete medium (mesenchymal stem cell complete media) for 24 hours. Next, the medium was replaced with serum free MSC complete medium and cultured again for 24 hours. Then, the HHFDPC was treated with the peptide of SEQ ID NO: 1 prepared in the Preparation Example at concentrations of 500 nM, […], and 50 μM, respectively, and cultured at 37° C. for 24 hours. As a positive control, minoxidil was treated at a concentration of 1 μM, and as a negative control, HHFDPC without any treatment was used. After washing with PBS, proteins in the nucleus were isolated using a nuclear protein extraction kit (Thermo scientific, USA). After electrophoresis using a 10% SDS-PAGE gel, it was transferred to a PVDF membrane and blocked using 5% skim milk at room temperature for 30 minutes. […] After washing again with 0.1% PBS-T (0.1% Tween-20 in PBS) three times for 15 minutes each, β-catenin was detected by treatment with ECL solution (GE Healthcare, USA).

cyclin D1 = test: RT-PCR of cyclin D1 expression in HHFDPC; type: cell-based, human; conditions: peptide 500 nM, 5 μM, 50 μM, 24 hours, FIG. 4
Experimental: as §4

Ha3-II = test: RT-PCR of Ha3-II expression in HHORSC; type: cell-based, human; conditions: peptide 500 nM, 5 μM, 50 μM, 72 hours, FIG. 6
Experimental: as §2

[2] = test system: human hair follicle dermal papilla cells (HHFDPC); test: Proliferation of dermal papilla cells (MTT, absorbance at 540 nm); type: cell-based; conditions: peptide 500 nM, 72 hours, FIG. 1
Experimental: While culturing human hair follicle dermal dermal papilla cells (HHFDPC), the absorbance was measured after treatment with the peptide of the present invention to confirm whether there was an effect of promoting the proliferation of the HHFDPC dermal papilla cells.
Specifically, HHFDPC (Sciencell, USA) was seeded at 4λ10^3 cells/well in a 96-well culture plate, cultured in MSC complete medium (mesenchymal stem cell complete media, Sciencell, USA) for 24 hours, and then the medium was replaced with serum free MSC complete medium and cultured for another 24 hours. Then, the HHFDPC was treated with the peptide of SEQ ID NO: 1 prepared in the Preparation Example at concentrations of 500 nM, 5 μM, and 50 μM, respectively, and cultured at 37° C. for 72 hours. As a positive control, minoxidil was treated at a concentration of 1 μM, and as a negative control, HHFDPC without any treatment was used. Then, 10 μl of 5 mg/mL MTT solution was added and cultured in a 37° C. CO2 incubator for 4 hours to stain the cells. After removing the medium, the cells were treated with 100 μl of DMSO and shaken for 10 minutes, and the number of HHFDPC cells was confirmed by measuring absorbance at a wavelength of 540 nm using a spectrophotometer.

HLPKPI [peptide of the present invention]
amount of MSX2 mRNA compared to the untreated control group (MSX2): increased further
amount of FOXN1 mRNA compared to the untreated control group (FOXN1): increased further
amount of Keratin 19 mRNA compared to the control group without treatment (Keratin 19): increased further
amount of Keratin 14 mRNA compared to the control group without treatment (Keratin 14): increased further
concentration dependence of the decrease of DHT-increased DKK-1 expression [1]: decreased again depending on the concentration
amount of DKK-1 protein compared to the negative control group (DHT only) ([1]; Western blotting): reduced
phosphorylation of ERK (p-ERK) compared to the control group not treated with the peptide (p-ERK): increased
amount of Keratin 5 mRNA compared to the control group without treatment (Keratin 5): increased further
amount of LEF-1 mRNA compared to the control group without any treatment (LEF-1): increased further
amount of c-Myc mRNA compared to the control group without any treatment (c-Myc): increased further
phosphorylation of AKT (p-AKT) compared to the control group not treated with the peptide (p-AKT): increased
concentration dependence of β-catenin activation (β-catenin): further promoted depending on the concentration
migration of β-catenin to the nucleus due to activation, compared to the control group not treated with the peptide (β-catenin; Western blotting): increased
amount of cyclin D1 mRNA compared to the control group without any treatment (cyclin D1): increased further
amount of Ha3-II mRNA compared to the control group without treatment (Ha3-II): increased further
absorbance (number of HHFDPC cells, proliferation) compared to the untreated control group ([2]; 5 μM, 50 μM, MTT, 540 nm): higher
proliferation promotion effect compared to the positive control group ([2]; 5 μM, and 50 μM vs minoxidil 1 μM): better proliferation promotion effect than the positive control group
